The values that follow come from ChEMBL document CHEMBL5465560, “Selectivity Literature for EUbOPEN Chemogenomic Library” (2024).

Experiment [1] addresses T1, Aurora kinase A (Homo sapiens) (UniProt O14965).
T1 sequence (whole entry): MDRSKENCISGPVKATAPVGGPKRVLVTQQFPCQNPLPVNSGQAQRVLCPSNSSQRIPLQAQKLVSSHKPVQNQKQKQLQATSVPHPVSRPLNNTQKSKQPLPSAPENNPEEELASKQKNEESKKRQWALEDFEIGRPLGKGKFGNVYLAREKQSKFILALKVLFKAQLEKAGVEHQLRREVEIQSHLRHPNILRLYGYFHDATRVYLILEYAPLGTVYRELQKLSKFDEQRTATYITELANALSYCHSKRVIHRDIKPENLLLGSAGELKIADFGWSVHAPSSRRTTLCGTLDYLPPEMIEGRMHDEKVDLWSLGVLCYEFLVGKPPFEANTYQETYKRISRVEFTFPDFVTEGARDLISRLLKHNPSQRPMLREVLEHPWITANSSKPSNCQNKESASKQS
As to the kind of experiment: Selectivity interaction (ProQinase) EUB0000171b STK6.

For experiment [2], the target named is T2, Cyclin-dependent kinase-like 5 (Homo sapiens) (UniProt O76039).
T2 sequence (whole entry): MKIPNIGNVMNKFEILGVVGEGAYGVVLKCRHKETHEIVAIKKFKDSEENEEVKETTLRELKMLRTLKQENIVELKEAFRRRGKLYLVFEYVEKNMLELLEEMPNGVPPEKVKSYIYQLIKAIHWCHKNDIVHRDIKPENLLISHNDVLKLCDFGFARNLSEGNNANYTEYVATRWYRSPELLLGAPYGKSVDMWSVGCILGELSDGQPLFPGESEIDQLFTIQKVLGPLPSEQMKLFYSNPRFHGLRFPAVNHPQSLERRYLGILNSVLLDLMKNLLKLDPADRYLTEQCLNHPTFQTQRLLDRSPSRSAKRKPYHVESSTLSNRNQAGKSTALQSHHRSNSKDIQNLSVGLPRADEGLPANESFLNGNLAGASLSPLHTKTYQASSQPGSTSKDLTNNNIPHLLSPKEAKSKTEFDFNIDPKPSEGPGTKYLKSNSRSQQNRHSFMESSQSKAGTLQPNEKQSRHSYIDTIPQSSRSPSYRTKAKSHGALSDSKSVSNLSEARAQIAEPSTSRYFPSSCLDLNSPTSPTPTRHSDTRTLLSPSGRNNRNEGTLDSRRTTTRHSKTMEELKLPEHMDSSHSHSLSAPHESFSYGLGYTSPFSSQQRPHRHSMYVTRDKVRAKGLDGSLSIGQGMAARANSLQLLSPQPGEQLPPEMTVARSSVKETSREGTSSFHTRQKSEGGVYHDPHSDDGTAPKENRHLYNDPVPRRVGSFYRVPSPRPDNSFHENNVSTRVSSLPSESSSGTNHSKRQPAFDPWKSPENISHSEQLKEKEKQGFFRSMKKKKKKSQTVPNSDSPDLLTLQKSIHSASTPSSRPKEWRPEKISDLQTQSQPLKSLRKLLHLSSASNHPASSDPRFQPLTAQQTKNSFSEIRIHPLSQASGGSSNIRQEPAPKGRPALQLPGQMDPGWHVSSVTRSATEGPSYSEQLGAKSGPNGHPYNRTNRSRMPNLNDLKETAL
The note with it: at 10 µM.

The target of experiment [3] is Serine/threonine-protein kinase MRCK beta (Homo sapiens) (UniProt Q9Y5S2). The following applies: at 10 µM.
Chain of Serine/threonine-protein kinase MRCK beta (Homo sapiens) (Q9Y5S2 whole entry): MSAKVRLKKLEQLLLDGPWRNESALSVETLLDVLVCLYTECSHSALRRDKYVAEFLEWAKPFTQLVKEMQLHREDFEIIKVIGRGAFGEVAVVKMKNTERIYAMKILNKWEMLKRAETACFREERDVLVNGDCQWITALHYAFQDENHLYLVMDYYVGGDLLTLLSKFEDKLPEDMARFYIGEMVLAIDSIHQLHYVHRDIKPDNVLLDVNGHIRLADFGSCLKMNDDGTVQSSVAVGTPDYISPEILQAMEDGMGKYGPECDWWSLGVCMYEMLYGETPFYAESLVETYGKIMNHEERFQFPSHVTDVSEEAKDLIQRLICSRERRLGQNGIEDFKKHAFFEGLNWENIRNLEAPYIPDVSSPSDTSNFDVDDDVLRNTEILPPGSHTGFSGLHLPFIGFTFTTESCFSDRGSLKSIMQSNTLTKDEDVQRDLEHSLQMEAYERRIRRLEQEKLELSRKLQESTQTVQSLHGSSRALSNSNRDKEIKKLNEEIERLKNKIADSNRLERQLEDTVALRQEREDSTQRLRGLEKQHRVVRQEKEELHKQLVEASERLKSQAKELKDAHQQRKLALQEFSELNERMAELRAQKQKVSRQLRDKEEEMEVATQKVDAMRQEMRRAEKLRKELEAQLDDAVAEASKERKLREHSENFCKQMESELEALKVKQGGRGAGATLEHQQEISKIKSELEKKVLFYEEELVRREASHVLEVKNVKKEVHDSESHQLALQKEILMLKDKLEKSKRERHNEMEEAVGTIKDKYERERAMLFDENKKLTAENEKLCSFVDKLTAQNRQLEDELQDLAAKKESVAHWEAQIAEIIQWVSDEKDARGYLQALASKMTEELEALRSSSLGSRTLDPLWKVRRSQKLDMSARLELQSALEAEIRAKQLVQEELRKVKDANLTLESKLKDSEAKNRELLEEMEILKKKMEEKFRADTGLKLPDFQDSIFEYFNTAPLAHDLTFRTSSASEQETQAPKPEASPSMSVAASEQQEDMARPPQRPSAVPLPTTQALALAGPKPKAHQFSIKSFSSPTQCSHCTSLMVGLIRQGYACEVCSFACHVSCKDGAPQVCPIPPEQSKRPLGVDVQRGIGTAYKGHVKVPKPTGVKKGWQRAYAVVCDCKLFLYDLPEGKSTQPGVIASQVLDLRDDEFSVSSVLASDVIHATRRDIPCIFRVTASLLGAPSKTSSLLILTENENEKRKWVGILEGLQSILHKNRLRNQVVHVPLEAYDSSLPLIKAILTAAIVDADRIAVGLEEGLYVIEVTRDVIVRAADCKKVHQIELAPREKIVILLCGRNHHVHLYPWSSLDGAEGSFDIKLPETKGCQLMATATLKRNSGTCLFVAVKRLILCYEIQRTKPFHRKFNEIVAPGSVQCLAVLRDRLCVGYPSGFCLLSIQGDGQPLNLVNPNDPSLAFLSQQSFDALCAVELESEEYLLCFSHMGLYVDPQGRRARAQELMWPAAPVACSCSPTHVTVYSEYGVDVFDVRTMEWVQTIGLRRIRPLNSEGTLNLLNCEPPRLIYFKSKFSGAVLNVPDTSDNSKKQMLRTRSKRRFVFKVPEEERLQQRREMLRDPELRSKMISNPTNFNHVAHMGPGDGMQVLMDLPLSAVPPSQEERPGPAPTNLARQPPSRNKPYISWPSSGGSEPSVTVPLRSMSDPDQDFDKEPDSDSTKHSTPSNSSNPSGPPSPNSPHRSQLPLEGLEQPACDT
The target of experiment [4] is T3, Cyclin-dependent kinase-like 2 (Homo sapiens) (UniProt Q92772).
T3 sequence (whole entry): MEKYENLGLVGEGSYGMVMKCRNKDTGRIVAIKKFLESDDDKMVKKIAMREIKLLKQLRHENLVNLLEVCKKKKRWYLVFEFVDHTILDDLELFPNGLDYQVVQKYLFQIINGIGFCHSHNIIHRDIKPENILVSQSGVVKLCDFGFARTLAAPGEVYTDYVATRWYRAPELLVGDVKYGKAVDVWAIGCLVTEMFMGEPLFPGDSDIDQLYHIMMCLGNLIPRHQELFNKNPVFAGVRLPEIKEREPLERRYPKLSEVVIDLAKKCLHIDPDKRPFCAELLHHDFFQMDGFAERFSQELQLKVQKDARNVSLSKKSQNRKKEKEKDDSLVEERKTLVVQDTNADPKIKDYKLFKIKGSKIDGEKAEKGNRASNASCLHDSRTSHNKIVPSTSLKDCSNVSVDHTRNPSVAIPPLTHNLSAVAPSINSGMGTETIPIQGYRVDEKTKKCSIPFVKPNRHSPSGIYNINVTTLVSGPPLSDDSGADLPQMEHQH
Nature of the experiment: Selectivity interaction (KinomeScan (DiscoverX)) EUB0001079a CDKL2. The note with it: at 1 µM.

Experiment [5] has as its target CDK4/Cyclin D3 (Homo sapiens) (UniProt P11802+P30281). Nature of the experiment: (§1) Selectivity interaction (KinomeScan (DiscoverX)) EUB0001049a CDK4. It counts as protein-complex assay. The note with it: at 1 µM.
Experiment [6] has as its target Cyclin-dependent kinase 4/cyclin D1 (Homo sapiens) (UniProt P11802+P24385). Described as §1. The experiment is classed as protein-complex assay. The note with it: at 1 µM.
Experiment [7] addresses Serine/threonine-protein kinase PRP4 homolog (Homo sapiens) (UniProt Q13523). As to the kind of experiment: Selectivity interaction (KinomeScan (DiscoverX)) EUB0000695a PRPF4B. The following applies: at 100 nM.
Experiment [8] addresses Muscarinic acetylcholine receptor M3 (Homo sapiens, UniProt P20309). As to the kind of experiment: Selectivity interaction (Panel of non-epigenetic targets (kinases, GPCRs, ion channels, and transporters, Eurofins) ) EUB0000271b CHRM3. The note with it: at 1 µM.
Experiment [9] addresses Serine/threonine-protein kinase Chk2 (Homo sapiens) (UniProt O96017). As to the kind of experiment: Selectivity interaction (KinomeScan (DiscoverX)) EUB0000666a CHEK2. The following applies: at 10 µM.
The target in experiment [10] is TGF-beta receptor type-2 (Homo sapiens) (UniProt P37173). Nature of the experiment: Selectivity interaction (LanthaScreen Eu Kinase Binding Assay) EUB0001632a TGFBR2. The note with it: at 10 µM. On the technique in general: Time-resolved FRET reads energy transfer from a long-lived donor to a nearby acceptor.
Chain of TGF-beta receptor type-2 (Homo sapiens) (P37173 whole entry): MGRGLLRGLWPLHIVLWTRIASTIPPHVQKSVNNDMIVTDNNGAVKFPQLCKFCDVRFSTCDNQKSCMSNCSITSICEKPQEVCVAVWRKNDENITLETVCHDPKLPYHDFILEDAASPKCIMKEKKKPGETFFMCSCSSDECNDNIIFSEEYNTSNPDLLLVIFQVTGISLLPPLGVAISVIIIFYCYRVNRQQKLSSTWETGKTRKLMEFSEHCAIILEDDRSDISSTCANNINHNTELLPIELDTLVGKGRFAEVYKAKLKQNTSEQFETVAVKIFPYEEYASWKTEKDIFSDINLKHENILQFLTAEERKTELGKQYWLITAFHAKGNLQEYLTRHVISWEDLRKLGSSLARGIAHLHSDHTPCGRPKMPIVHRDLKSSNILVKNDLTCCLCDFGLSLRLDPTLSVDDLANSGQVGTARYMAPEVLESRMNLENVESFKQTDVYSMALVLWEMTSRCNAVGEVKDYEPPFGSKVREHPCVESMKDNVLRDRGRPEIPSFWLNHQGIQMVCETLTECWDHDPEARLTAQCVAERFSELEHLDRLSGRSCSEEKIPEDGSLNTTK
Experiment [11] addresses Serine/threonine-protein kinase Chk2 (Homo sapiens) (UniProt O96017). As to the kind of experiment: Selectivity interaction (KinomeScan (DiscoverX)) EUB0000229b CHEK2. The following applies: at 10 µM.
In experiment [12] the target is cGMP-inhibited 3',5'-cyclic phosphodiesterase 3A (Homo sapiens, UniProt Q14432). Nature of the experiment: Selectivity interaction (Phosphodiesterase 3 from human platelets ) EUB0000877a PDE3A. It counts as cell-based, Platelet.
Chain of cGMP-inhibited 3',5'-cyclic phosphodiesterase 3A (Q14432 whole entry): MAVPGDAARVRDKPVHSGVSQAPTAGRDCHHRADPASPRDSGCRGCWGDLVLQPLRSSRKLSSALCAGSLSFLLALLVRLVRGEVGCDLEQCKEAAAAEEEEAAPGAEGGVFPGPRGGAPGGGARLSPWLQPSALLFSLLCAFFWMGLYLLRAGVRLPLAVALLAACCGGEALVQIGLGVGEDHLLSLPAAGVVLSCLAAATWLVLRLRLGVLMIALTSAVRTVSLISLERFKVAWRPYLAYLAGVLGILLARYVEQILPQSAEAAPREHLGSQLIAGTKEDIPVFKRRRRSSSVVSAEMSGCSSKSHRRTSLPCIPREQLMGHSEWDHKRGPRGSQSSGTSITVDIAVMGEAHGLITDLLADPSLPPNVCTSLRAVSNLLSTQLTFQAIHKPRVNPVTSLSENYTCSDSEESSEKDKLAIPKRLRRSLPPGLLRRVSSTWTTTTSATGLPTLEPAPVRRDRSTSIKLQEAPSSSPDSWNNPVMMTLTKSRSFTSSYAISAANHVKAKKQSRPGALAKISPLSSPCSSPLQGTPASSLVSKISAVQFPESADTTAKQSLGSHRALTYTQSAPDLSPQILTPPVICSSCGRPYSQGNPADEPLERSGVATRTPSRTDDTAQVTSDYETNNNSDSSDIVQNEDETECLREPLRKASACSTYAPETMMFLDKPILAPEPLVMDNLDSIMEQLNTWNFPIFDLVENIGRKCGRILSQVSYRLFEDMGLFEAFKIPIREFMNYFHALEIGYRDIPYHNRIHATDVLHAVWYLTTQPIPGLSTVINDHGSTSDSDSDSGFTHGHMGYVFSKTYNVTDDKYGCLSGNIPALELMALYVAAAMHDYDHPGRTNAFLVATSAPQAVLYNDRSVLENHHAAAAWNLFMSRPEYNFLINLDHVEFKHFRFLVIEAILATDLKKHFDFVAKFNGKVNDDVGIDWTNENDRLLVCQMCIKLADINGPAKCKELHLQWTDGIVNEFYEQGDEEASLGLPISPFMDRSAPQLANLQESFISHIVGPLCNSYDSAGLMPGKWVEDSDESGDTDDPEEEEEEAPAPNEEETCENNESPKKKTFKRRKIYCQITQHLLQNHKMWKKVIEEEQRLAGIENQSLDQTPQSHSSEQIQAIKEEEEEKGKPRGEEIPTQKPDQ

Chain of Serine/threonine-protein kinase Chk2 (Homo sapiens) (O96017 whole entry): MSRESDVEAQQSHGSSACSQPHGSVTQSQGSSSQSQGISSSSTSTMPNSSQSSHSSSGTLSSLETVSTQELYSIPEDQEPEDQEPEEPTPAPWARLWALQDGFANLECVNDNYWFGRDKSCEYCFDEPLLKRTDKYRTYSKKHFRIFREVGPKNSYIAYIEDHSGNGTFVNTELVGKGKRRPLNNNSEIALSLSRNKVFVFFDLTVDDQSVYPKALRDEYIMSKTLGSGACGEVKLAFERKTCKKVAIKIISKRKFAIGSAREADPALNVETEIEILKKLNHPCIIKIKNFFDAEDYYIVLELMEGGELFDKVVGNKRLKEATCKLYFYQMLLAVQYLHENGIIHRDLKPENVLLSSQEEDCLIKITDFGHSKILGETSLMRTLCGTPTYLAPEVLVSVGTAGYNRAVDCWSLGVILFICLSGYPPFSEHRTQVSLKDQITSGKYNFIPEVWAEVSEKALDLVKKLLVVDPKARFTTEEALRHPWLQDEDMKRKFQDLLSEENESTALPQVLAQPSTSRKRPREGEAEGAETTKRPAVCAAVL
Chain of Muscarinic acetylcholine receptor M3 (P20309 whole entry, looked up): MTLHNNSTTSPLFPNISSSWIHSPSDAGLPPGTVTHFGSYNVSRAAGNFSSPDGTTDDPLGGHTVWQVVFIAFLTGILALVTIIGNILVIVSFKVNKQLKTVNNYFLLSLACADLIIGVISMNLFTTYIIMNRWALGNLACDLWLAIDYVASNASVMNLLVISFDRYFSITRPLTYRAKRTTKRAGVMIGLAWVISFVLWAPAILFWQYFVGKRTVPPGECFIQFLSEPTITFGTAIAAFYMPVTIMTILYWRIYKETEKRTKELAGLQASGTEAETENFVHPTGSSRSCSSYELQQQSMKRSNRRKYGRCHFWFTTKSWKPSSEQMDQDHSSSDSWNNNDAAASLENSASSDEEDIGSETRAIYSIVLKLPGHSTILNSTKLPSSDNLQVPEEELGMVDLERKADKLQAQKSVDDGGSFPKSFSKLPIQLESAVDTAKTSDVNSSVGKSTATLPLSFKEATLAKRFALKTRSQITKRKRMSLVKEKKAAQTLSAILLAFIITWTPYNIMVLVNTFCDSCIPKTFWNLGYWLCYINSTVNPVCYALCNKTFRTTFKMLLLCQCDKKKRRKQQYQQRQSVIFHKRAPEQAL

Turning to `C=CC(=O)Nc1cccc(C(=O)Nc2ccc(Nc3cc(-c4[nH]c(SC)nc4C)ccn3)cc2)c1`, the values for the % of control in [1] (at 1 µM) and in experiment [1] (at 5 µM) were 74% and 34%, respectively. `Cc1cc([C@@H](C)Nc2ccccc2C(=O)O)c2nc(N3CCOCC3)cc(=O)n2c1` [AZD-6482] showed a % of control in experiment [2] of 74%. `CCN(CC)CCCCNc1ncc2cc(-c3cc(OC)cc(OC)c3)c(NC(=O)NC(C)(C)C)nc2n1` had a % of control in experiment [3] of 100%. `Nc1cnc(N2CCc3cc(S(=O)(=O)Nc4c(F)cc(Cl)cc4F)cc(N4CCCC4=O)c32)nc1` [TP-020n]: in [4], the % of control came to 85%.

On to `COc1cc(Nc2nc(C)cc(-c3cnn4nc(OC)ccc34)n2)cc(C(F)(F)F)c1`, for which the % of control in experiment [5] amounted to 98%; in [6] it was 100%. Molecule `Cc1cc(F)c(C(=O)Nc2cccc(-c3nncn3C(C)C)n2)cc1-n1cnc(C2CC2)c1` yielded a % of control in experiment [7] of 81%. With `Cc1cc(C)cc([C@@H]2c3cc(C)ccc3NC(=O)CN2C(=O)c2ccc(Br)s2)c1`, the % of inhibition in [8] was 12%.

`O=C(NOC[C@H](O)CO)c1ccc(F)c(F)c1Nc1ccc(I)cc1F` displayed a % of control in experiment [9] of 86%.

`Cn1cc(-n2cnc3c(NCc4nc5cc(Cl)c(Cl)cc5[nH]4)nc(N4CCOCC4)nc32)cn1`: the % of inhibition in experiment [10] is -26.6%.

The molecule `COc1cc(N(C)c2ccnc3ccc(C(F)(F)F)cc23)cc(OC)c1OC` yielded a % binding in [11] of 74%. With `CCC(=O)N1CC[C@H](Nc2ncnc3c2CN(c2cnc(OC)c(C(F)(F)F)c2)CC3)C1` [LENIOLISIB], the half-maximal inhibitory concentration (IC50) (in general, the midpoint of a concentration-inhibition curve) in [12] was more than 30 µM.
